Source: ChEMBL document CHEMBL1201862, “PubChem BioAssay data set” (2004)
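Growth conditions: 96-well plates. Treatment: test compound, 48 hours, 5 concentrations. Analysis: linear interpolation between bracketing concentrations; unreached endpoints set to highest concentration. Here, GI50 denotes the concentration required for 50% inhibition of growth.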 Activity calls are given as the source filed them. Rule as the data show it: active = GI50 up to about 1.1 µM and inactive = higher.

Columns and labels:
Assay in all cases: NCI-60 cell line screen, 48 h
SR = system: SR
SF-268 = system: SF-268
SNB-19 = system: SNB-19
A549 = system: A549
OVCAR-4 = system: OVCAR-4
RPMI-8226 = system: RPMI-8226
TK-10 = system: TK-10
OVCAR-8 = system: OVCAR-8
NCI-H460 = system: NCI-H460
SK-MEL-5 = system: SK-MEL-5
SN12C = system: SN12C
UO-31 = system: UO-31
HCT-116 = system: HCT-116
UACC-257 = system: UACC-257
HCT-15 = system: HCT-15
DU-145 = system: DU-145
PC-3 = system: PC-3
MDA-MB-231 = system: MDA-MB-231
MDA-MB-435 = system: MDA-MB-435
T47D = system: T47D

COC(=O)C(Cc1nc2ccc(Cl)cc2nc1O)/C(=N/O)C(=O)Nc1cccc(Cl)c1C (centres undefined)
GI50 (SR): > 100 µM (inactive) | GI50 (SF-268): > 100 µM (inactive) | GI50 (SNB-19): > 100 µM (inactive) | GI50 (A549): > 100 µM (inactive) | GI50 (OVCAR-4): > 100 µM (inactive) | GI50 (RPMI-8226): > 100 µM (inactive) | GI50 (TK-10): > 100 µM (inactive) | GI50 (OVCAR-8): > 100 µM (inactive) | GI50 (NCI-H460): > 100 µM (inactive) | GI50 (SK-MEL-5): > 100 µM (inactive) | GI50 (SN12C): > 100 µM (inactive) | GI50 (UO-31): > 100 µM (inactive) | GI50 (HCT-116): > 100 µM (inactive) | GI50 (UACC-257): > 100 µM (inactive) | GI50 (HCT-15): > 100 µM

COc1cc(/C=c2\sc3n(c2=O)C(c2ccc(Cl)cc2)C2=C(CCCC2C)N=3)cc(OC)c1OC (centres undefined)
GI50 (SR): > 100 µM (inactive) | GI50 (DU-145): > 100 µM (inactive) | GI50 (SF-268): > 100 µM (inactive) | GI50 (SNB-19): > 100 µM (inactive) | GI50 (PC-3): > 100 µM (inactive) | GI50 (A549): > 100 µM (inactive) | GI50 (MDA-MB-231): 25.9 µM (inactive) | GI50 (RPMI-8226): > 100 µM (inactive) | GI50 (MDA-MB-435): > 100 µM (inactive) | GI50 (TK-10): > 100 µM (inactive) | GI50 (OVCAR-8): > 100 µM (inactive) | GI50 (SK-MEL-5): 83 µM (inactive) | GI50 (SN12C): > 100 µM (inactive) | GI50 (UO-31): > 100 µM (inactive) | GI50 (HCT-116): > 100 µM (inactive) | GI50 (UACC-257): > 100 µM (inactive) | GI50 (HCT-15): > 100 µM

CCOc1ccc(NC(=O)/C(=N\NC(C)(C)C)C2C(=O)Nc3ccccc3[S+]2[O-])cc1 (centres undefined)
GI50 (SR): 45.1 µM (inactive) | GI50 (DU-145): > 100 µM (inactive) | GI50 (SF-268): > 100 µM (inactive) | GI50 (SNB-19): > 100 µM (inactive) | GI50 (PC-3): > 100 µM (inactive) | GI50 (A549): > 100 µM (inactive) | GI50 (OVCAR-4): > 100 µM (inactive) | GI50 (RPMI-8226): 20.7 µM (inactive) | GI50 (MDA-MB-435): > 100 µM (inactive) | GI50 (TK-10): > 100 µM (inactive) | GI50 (OVCAR-8): > 100 µM (inactive) | GI50 (NCI-H460): > 100 µM (inactive) | GI50 (SK-MEL-5): > 100 µM (inactive) | GI50 (SN12C): > 100 µM (inactive) | GI50 (UO-31): > 100 µM (inactive) | GI50 (HCT-116): > 100 µM (inactive) | GI50 (UACC-257): > 100 µM (inactive) | GI50 (HCT-15): > 100 µM | GI50 (T47D): > 100 µM (inactive)

O=C1NC(=O)C(CC(C(=O)C(=O)Nc2ccccc2Cl)C(=O)c2ccc3ccccc3c2)C(=O)N1 (centres undefined)
GI50 (DU-145): > 100 µM (inactive) | GI50 (SF-268): > 100 µM (inactive) | GI50 (SNB-19): > 100 µM (inactive) | GI50 (PC-3): > 100 µM (inactive) | GI50 (A549): > 100 µM (inactive) | GI50 (OVCAR-4): > 100 µM (inactive) | GI50 (MDA-MB-231): > 100 µM (inactive) | GI50 (MDA-MB-435): > 100 µM (inactive) | GI50 (TK-10): > 100 µM (inactive) | GI50 (OVCAR-8): > 100 µM (inactive) | GI50 (NCI-H460): > 100 µM (inactive) | GI50 (SK-MEL-5): > 100 µM (inactive) | GI50 (SN12C): > 100 µM (inactive) | GI50 (UO-31): 63.7 µM (inactive) | GI50 (HCT-116): > 100 µM (inactive) | GI50 (UACC-257): > 100 µM (inactive) | GI50 (HCT-15): > 100 µM

COc1nn(Cc2ccccc2F)c2ccc([N+](=O)[O-])cc12
GI50 (SR): > 100 µM (inactive) | GI50 (DU-145): > 100 µM (inactive) | GI50 (SF-268): > 100 µM (inactive) | GI50 (SNB-19): > 100 µM (inactive) | GI50 (A549): > 100 µM (inactive) | GI50 (OVCAR-4): > 100 µM (inactive) | GI50 (MDA-MB-231): 12.1 µM (inactive) | GI50 (MDA-MB-435): 2.74 µM (inactive) | GI50 (TK-10): > 100 µM (inactive) | GI50 (OVCAR-8): > 100 µM (inactive) | GI50 (NCI-H460): > 100 µM (inactive) | GI50 (SK-MEL-5): > 100 µM (inactive) | GI50 (SN12C): > 100 µM (inactive) | GI50 (UO-31): > 100 µM (inactive) | GI50 (HCT-116): > 100 µM (inactive) | GI50 (UACC-257): > 50.6 µM (inactive) | GI50 (HCT-15): > 100 µM | GI50 (T47D): > 100 µM (inactive)

CCOC(=O)C1(CO)CSCCSC1
GI50 (SR): > 100 µM (inactive) | GI50 (DU-145): > 100 µM (inactive) | GI50 (SF-268): > 100 µM (inactive) | GI50 (SNB-19): > 100 µM (inactive) | GI50 (PC-3): > 100 µM (inactive) | GI50 (A549): > 100 µM (inactive) | GI50 (MDA-MB-231): > 100 µM (inactive) | GI50 (MDA-MB-435): > 100 µM (inactive) | GI50 (TK-10): > 100 µM (inactive) | GI50 (OVCAR-8): > 100 µM (inactive) | GI50 (NCI-H460): > 100 µM (inactive) | GI50 (SK-MEL-5): > 100 µM (inactive) | GI50 (SN12C): > 100 µM (inactive) | GI50 (UO-31): > 100 µM (inactive) | GI50 (HCT-116): > 100 µM (inactive) | GI50 (UACC-257): > 100 µM (inactive) | GI50 (HCT-15): > 100 µM

Cc1ccc(S(=O)(=O)N2CCc3cc(O)c([N+](=O)[O-])cc32)cc1
GI50 (DU-145): > 100 µM (inactive) | GI50 (SF-268): > 100 µM (inactive) | GI50 (SNB-19): > 100 µM (inactive) | GI50 (PC-3): > 100 µM (inactive) | GI50 (A549): > 100 µM (inactive) | GI50 (OVCAR-4): > 100 µM (inactive) | GI50 (MDA-MB-231): > 100 µM (inactive) | GI50 (MDA-MB-435): > 100 µM (inactive) | GI50 (TK-10): > 100 µM (inactive) | GI50 (OVCAR-8): > 100 µM (inactive) | GI50 (SK-MEL-5): > 100 µM (inactive) | GI50 (SN12C): > 100 µM (inactive) | GI50 (UO-31): > 100 µM (inactive) | GI50 (HCT-116): > 100 µM (inactive) | GI50 (UACC-257): > 100 µM (inactive) | GI50 (HCT-15): > 100 µM | GI50 (T47D): > 100 µM (inactive)

CN1CC[C@@]2(c3cccc(O)c3)CC(=O)/C(=C/c3ccccc3)[C@H]1C2.[O-][Cl+3]([O-])([O-])O
GI50 (SR): 2.61 µM (inactive) | GI50 (DU-145): 15.8 µM (inactive) | GI50 (SF-268): 4.28 µM (inactive) | GI50 (SNB-19): 7.31 µM (inactive) | GI50 (PC-3): 4.29 µM (inactive) | GI50 (A549): 15 µM (inactive) | GI50 (OVCAR-4): 7.94 µM (inactive) | GI50 (MDA-MB-231): 6.82 µM (inactive) | GI50 (RPMI-8226): 2.44 µM (inactive) | GI50 (MDA-MB-435): 3.05 µM (inactive) | GI50 (TK-10): 15.7 µM (inactive) | GI50 (OVCAR-8): 8.22 µM (inactive) | GI50 (NCI-H460): 3.52 µM (inactive) | GI50 (SK-MEL-5): 17.8 µM (inactive) | GI50 (SN12C): 7.03 µM (inactive) | GI50 (UO-31): 12.9 µM (inactive) | GI50 (HCT-116): 3.37 µM (inactive) | GI50 (UACC-257): 16.1 µM (inactive) | GI50 (HCT-15): 5.89 µM
